Test results from US4937346A, “Phenyl-azacykloalkanes” (Carlsson; Per Arvid Emil, priority 1979, dated 1990).

Key:
[1] = tested on: DA autoreceptors; test: Effect on spontaneous locomotor activity in the rat; assay type: in vivo; conditions: for Motor activity: 0-15 min
Source text: 4. Effect on spontaneous locomotor activity in the rat.
Untreated animals exposed to a new environment display an initial high motor activity which then gradually declines over a period of time. Administration of DA-receptor agonists (e.g. apomorphine) in doses where preferential autoreceptor stimulation is likely to occur, causes a depression of the spontaneous motility mentioned above, considered to be due to the DA autoreceptor-mediated impairment of central DA transmission.
Rats (150-300 g) were injected subcutaneously with several doses of compounds 4 and after 5 minutes they were individually placed in motility boxes ("M/P 40 Fc Electronic Motility Meter". Motron Products, Stockholm) and the motor activity (0-30 min.) was quantified. […] Moreover, there seems to be a correlation between the decrease in spontaneous locomotion and the degree of antagonism of the GBL-induced increase in DA synthesis (cf. 3 above) in the limbic areas of rat brain exerted by compound 4, the per cent decrease of motor activity being roughly 0.6 times the per cent reversal of GBL-induced increase in DA-synthesis rate.

[2] = tested on: DA autoreceptors; test: Turning behavior in rats with acute unistriatal KCl lesion; assay type: in vivo, rat; set-up: key to Catalepsy: + present; - absent; conditions: for Apomorphine-induced turning: apomorphine 1.0 mg/kg s.c. 1 h after
Source text: 5. Turning behavior in rats with acute unistriatal lesion.
In animals with an acute unilateral KCl-lesion (1μ1 25% KCl lesioned side, 1μ1 20% NaCl control side, administered through previously implanted "guide cannulaes") of the striatum, compensatory counterbalancing adjustments in the intact contralateral striatum are brought about and therefore no appreciable asymmetry in body posture or torsion is observed. Disturbances in the balance produces, depending on the point of attack, ipsi- or alternatively contralateral turning. In this model postsynaptically active DA agonists (e.g. apomorphine, high dosage) elicit ipsilateral turning and rotatory behavior whereas DA antagonists (e.g. haloperidol) cause contralateral turning. Consequently it could be expected that agents acting exclusively on DA autoreceptors would produce contralateral turning in the lesioned animals.

[3] = Rat rectal temperature; assay type: in vivo; conditions: 8 mg/kg s.c., 0-30 min
Source text: It was in fact lacking any measurable temperature effects.

## Br.CCCN1CCCC(c2cccc(O)c2)C1 (racemic) [Compound 4, N-n-propyl-3-(3-hydroxyphenyl)piperidine hydrobromide]
[1]; glucose i.p. + compound 4 0.5 mg/kg s.c., n=5
  Motor activity: 43 ± 9 acc. counts
[1]; haloperidol 0.02 mg/kg i.p. + compound 4 0.5 mg/kg s.c., n=7
  Motor activity: 80 ± 10 acc. counts
[1]; haloperidol 0.02 mg/kg i.p. 30 min before, compound 4 0.5 mg/kg
  reversal of sedative effect by haloperidol: at least partly reversed the sedative effect
[1]; limbic areas, correlation
  per cent decrease of motor activity relative to per cent reversal of GBL-induced increase in DA-synthesis rate: roughly 0.6 times
[1]; regardless of the dose used
  locomotor stimulation: No locomotor stimulation was ever seen
[1]; s.c., 0-30 min, at about 8 mg/kg
  maximal decrease of motor activity from control values: 75%
[1]; s.c., 75% decrease from control values
  dose at which maximal effect is attained: about 8 mg/kg
[1]; s.c., several doses
  dose dependence of motor activity effect: clear dose-dependent decrease of the initial high motor activity
[2]; 1 mg/kg s.c.
  Catalepsy: -
[2]; 1 mg/kg s.c., 2 animals
  Turning contralateral: 2
  Turning ipsilateral: 0
[2]; 2 mg/kg s.c.
  Catalepsy: -
  Duration of turning: > 2 h
  Apomorphine-induced turning: Ipsi 4/4
[2]; 2 mg/kg s.c., 4 animals
  Turning contralateral: 4
  Turning ipsilateral: 0
[2]; 4 mg/kg s.c.
  Catalepsy: -
[2]; 4 mg/kg s.c., 2 animals
  Turning contralateral: 2
  Turning ipsilateral: 0
[2]; 8 mg/kg s.c.
  Catalepsy: -
  Duration of turning: > 4 h
  Apomorphine-induced turning: Ipsi 4/4
[2]; 8 mg/kg s.c., 4 animals
  Turning contralateral: 4
  Turning ipsilateral: 0
[2]; 32 mg/kg s.c.
  Catalepsy: +
  Duration of turning: > 4 h
  Apomorphine-induced turning: Ipsi 8/8
[2]; 32 mg/kg s.c., 8 animals
  Turning contralateral: 8
  Turning ipsilateral: 0
[2]; apomorphine 1.0 mg/kg s.c., pretreatment with compound 4
  effect on apomorphine ipsilateral turning and rotatory response: not affected by pretreatment with compound 4
[2]; s.c., each dose tested
  turning direction: made the animals turn to the side contralateral to the lesion
[2]; s.c., lesioned rats
  overall appearance: indicative of a sedative action
[3]
  effect on rectal temperature: failed to lower the rat rectal temperature
